The source of these data is US20240180872A1, “METHODS AND COMPOUNDS OF CANNABIDIOL, MELATONIN AND AKBA FOR TREATING PANCREATIC CANCER” (priority 2021, published 2024).

The experiment deals with PANC-1 cells. Briefly: Nude mice orthotopic pancreatic tumor model. It counts as in vivo, Athymic Nude-Foxn1nu mice. Particulars: after 30 days of treatment, GEM 50 mg/kg, MLT 400 mg/kg, CBD 10 mg/kg.

Excerpt: Species and strain: Athymic Nude-Foxn1nu mice.
PANC-1 cells were thawed and cultured in DMEM (Dulbecco's Modified Eagle Medium) +2% L-glutamine +10% FBS (Fetal Bovine Serum), Penicillin/Streptomycin and maintain the cell culture in 100 mm Petri dish (Sarstedt, Germany).
A period of acclimation (at least 5 days) was allowed to mice before tumor inoculation. Before the inoculum, PANC-1 cells were detached with trypsin, counted with trypan blue and for each inoculum, 1×10^6 cells were suspended in 20 ul of PBS. Mice (n=20) were anesthetized with isoflurane (induction at 4% and maintenance at 2%) and cell solutions (20 μL, 1×10^6 cells) were orthotopically injected into the tail of the pancreas exploiting the echo-guided procedure. The 20 animals inoculated with tumor cells were divided in 4 groups (Table 6) when tumor size reaches a volume of approximately 20-30 mm^3 (tumor size was determined by ultrasound imaging analysis).
The animals were inoculated with 1×10^6 PANC-1 cells with VevoLAZR-X system by using echo-guided injection method. All animals were treated every three days for 30 days starting when tumor reached the volume of approximately 30 mm^3 (around 10-15 days from the inoculum). […]
Tumor volume was analyzed by using Vevo Lab software (Fujifilm Visualsonics).

For `Nc1ccn([C@@H]2O[C@H](CO)[C@@H](O)C2(F)F)c(=O)n1` [GEM, Gemcitabine], the tumor volumes (IP every three days, Vehicle 630,8) is reported as 111,1. Further, the “effect on tumor volume” value (IP) was “high effect”.
